The values that follow are results of earlier work, collected in patent US7317127B2, “Process for the optical resolution and recycling of tomoxetine” (Teva Pharmaceutical Fine Chemicals S.r.l, priority 2004, dated 2008).

For the series the following is noted: as disclosed in U.S. Pat. No. 4,018,895, EP 0 052 492, EP 0 721 777.

With `CNCC[C@@H](Oc1ccccc1C)c1ccccc1` [Atomoxetine, (R)(−)-N-methyl-3-(2-methylphenoxy)-3-phenylpropylamine], the “effectiveness relative to the (+)-enantiomer” value (versus (S)-(+)-tomoxetine) is “about nine times more effective than the (+)-enantiomer”. Moreover, the “effectiveness relative to the racemic mixture” value (versus racemic tomoxetine) is “about twice as effective as the racemic mixture”.
